Source: PubChem BioAssay AID248 (DTP/NCI, 2004)
Inconclusive results and toxic doses are left out. Rule as the data show it: active = T/C of 150% or more; inactive = T/C below 125%.

Tested on: L1210 leukemia ip in BDF1 mice, survival T/C
Assay: NCI In Vivo Anticancer Drug Screen. Data for tumor model L1210 Leukemia (intraperitoneal) in B6D2F1 (BDF1) mice
Details: endpoint: mean survival time, higher = longer survival
Outline: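 Each compound was tested against a transplantable tumor grown in mice. The endpoint was survival, with treated animals benchmarked against vehicle controls as a simple ratio.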

[1] = dose: 25.0 mg/kg/injection, schedule: Q04DX003 (ip), vehicle: Klucel (hydroxypropylcellulose) (HPC)
[2] = dose: 50.0 mg/kg/injection, schedule: Q04DX003 (ip), vehicle: Klucel (hydroxypropylcellulose) (HPC)
[3] = dose: 100.0 mg/kg/injection, schedule: Q04DX003 (ip), vehicle: saline with Tween-80
[4] = dose: 200.0 mg/kg/injection, schedule: Q04DX003 (ip), vehicle: saline with Tween-80
[5] = dose: 100.0 mg/kg/injection, schedule: Q01DX001 (ip), vehicle: saline
[6] = dose: 200.0 mg/kg/injection, schedule: Q01DX001 (ip), vehicle: saline
[7] = dose: 6.25 mg/kg/injection, schedule: Q01DX009 (ip), vehicle: Klucel (hydroxypropylcellulose) (HPC)
[8] = dose: 12.5 mg/kg/injection, schedule: Q01DX009 (ip), vehicle: Klucel (hydroxypropylcellulose) (HPC)
[9] = dose: 100.0 mg/kg/injection, schedule: Q04DX003 (ip), vehicle: Klucel (hydroxypropylcellulose) (HPC)
[10] = dose: 12.5 mg/kg/injection, schedule: Q04DX003 (ip), vehicle: saline
[11] = dose: 25.0 mg/kg/injection, schedule: Q04DX003 (ip), vehicle: saline
[12] = dose: 50.0 mg/kg/injection, schedule: Q04DX003 (ip), vehicle: saline
[13] = dose: 100.0 mg/kg/injection, schedule: Q01DX009 (ip), vehicle: Klucel (hydroxypropylcellulose) (HPC)
[14] = dose: 100.0 mg/kg/injection, schedule: Q04DX003 (ip), vehicle: saline
[15] = dose: 100.0 mg/kg/injection, schedule: Q01DX001 (ip), vehicle: Klucel (hydroxypropylcellulose) (HPC)
[16] = dose: 200.0 mg/kg/injection, schedule: Q01DX001 (ip), vehicle: Klucel (hydroxypropylcellulose) (HPC)
[17] = dose: 400.0 mg/kg/injection, schedule: Q01DX001 (ip), vehicle: Klucel (hydroxypropylcellulose) (HPC)
[18] = dose: 50.0 mg/kg/injection, schedule: Q01DX009 (ip), vehicle: saline with Tween-80
[19] = dose: 100.0 mg/kg/injection, schedule: Q01DX009 (ip), vehicle: saline with Tween-80
[20] = dose: 200.0 mg/kg/injection, schedule: Q01DX009 (ip), vehicle: saline with Tween-80
[21] = dose: 200.0 mg/kg/injection, schedule: Q04DX003 (ip), vehicle: Klucel (hydroxypropylcellulose) (HPC)
[22] = dose: 400.0 mg/kg/injection, schedule: Q04DX003 (ip), vehicle: Klucel (hydroxypropylcellulose) (HPC)
[23] = dose: 200.0 mg/kg/injection, schedule: Q01DX009 (ip), vehicle: Klucel (hydroxypropylcellulose) (HPC)
[24] = dose: 400.0 mg/kg/injection, schedule: Q01DX009 (ip), vehicle: Klucel (hydroxypropylcellulose) (HPC)
[25] = dose: 400.0 mg/kg/injection, schedule: Q04DX003 (ip), vehicle: saline with Tween-80
[26] = dose: 25.0 mg/kg/injection, schedule: Q01DX009 (ip), vehicle: saline

Measured: T/C

CCN1CCC(CNc2cc(C)nc(/N=C(\N)Nc3ccc(Cl)c(Cl)c3)n2)C1 (configuration not stated)
inactive: dose: 12.5 mg/kg/injection, schedule: Q04DX003 (ip), vehicle: Klucel (hydroxypropylcellulose) (HPC) 98 % of control | [1] 102 % of control | [2] 107 % of control

C/C(=C\Cl)CO
inactive: [3] 97 % of control | [4] 95 % of control

CC(=O)OC1CCCCC1C (configuration not stated)
inactive: [5] 102 % of control | [6] 94 % of control | dose: 400.0 mg/kg/injection, schedule: Q01DX001 (ip), vehicle: saline 91 % of control

CSc1nnc([N+](=O)[O-])s1
inactive: [7] 94 % of control | [8] 90 % of control

CCCCCn1c(Cl)c(C(=O)O)c2ccccc21
inactive: [1] 109 % of control | [2] 97 % of control | [9] 102 % of control

COc1ccc(C[n+]2cccc(NC(=O)COc3ccc(Cl)c(Cl)c3)c2)cc1
inactive: [9] 97 % of control

CCn1cnc2c(SC(C)C)ncnc21
inactive: dose: 16.0 mg/kg/injection, schedule: Q01DX Z (ip), vehicle: carboxymethylcellulose (CMC) 95 % of control | dose: 31.0 mg/kg/injection, schedule: Q01DX Z (ip), vehicle: carboxymethylcellulose (CMC) 101 % of control | dose: 62.0 mg/kg/injection, schedule: Q01DX Z (ip), vehicle: carboxymethylcellulose (CMC) 107 % of control

N#CC(c1ccc(N)cc1)c1ccc(F)cc1 (configuration not stated)
inactive: dose: 50.0 mg/kg/injection, schedule: Q01DX001 (ip), vehicle: saline 97 % of control | [5] 97 % of control | [6] 97 % of control

CCCCNc1cc(Nc2ccc(Br)cc2)nc(N)n1
inactive: [5] 102 % of control | [6] 98 % of control

COc1cc(OC)cc(C(O)C(C)NC(C)C)c1 (configuration not stated)
inactive: [7] 95 % of control | [8] 92 % of control | [10] 108 % of control | dose: 25.0 mg/kg/injection, schedule: Q01DX009 (ip), vehicle: Klucel (hydroxypropylcellulose) (HPC) 92 % of control | [11] 97 % of control | dose: 50.0 mg/kg/injection, schedule: Q01DX009 (ip), vehicle: Klucel (hydroxypropylcellulose) (HPC) 95 % of control | [12] 105 % of control | [13] 101 % of control | [14] 103 % of control

C/C(C(=O)O)=C1\N=C(N)NC1=O
inactive: [15] 98 % of control | [16] 96 % of control | [17] 102 % of control

Nc1nc(=S)[nH][nH]1
inactive: [18] 105 % of control | dose: 100.0 mg/kg/injection, schedule: Q01DX001 (ip), vehicle: saline with Tween-80 104 % of control | [19] 117 % of control | [3] 104 % of control | dose: 200.0 mg/kg/injection, schedule: Q01DX001 (ip), vehicle: saline with Tween-80 105 % of control | [20] 101 % of control | [4] 98 % of control

Cc1cc(S(=O)(=O)F)ccc1NC(=O)NCc1ccc(N2C(N)=NC(N)=NC2(C)C)cc1
inactive: [9] 108 % of control | [21] 100 % of control | [22] 106 % of control

COc1cccc(C(C)(C)CO)c1
inactive: [18] 93 % of control | [19] 89 % of control | [20] 89 % of control

Cn1c(=O)c2ccccc2c2ccccc21
inactive: [13] 99 % of control | [9] 100 % of control | [23] 97 % of control | [21] 100 % of control | [24] 100 % of control | [22] 105 % of control

Cc1ccc(NC(=O)c2cccc(C(=O)Nc3ccc(C)c(C)c3)c2)cc1C
inactive: [13] 94 % of control | [9] 91 % of control | [23] 104 % of control | [21] 97 % of control | [24] 94 % of control | [22] 91 % of control

BrC1=C(c2ccccc2)C2CCCCC2C1(Br)c1ccccc1 (configuration not stated)
inactive: [13] 103 % of control | [23] 105 % of control | [24] 114 % of control

CCOC(=O)C(C#N)S(C)(=O)=O (configuration not stated)
inactive: [5] 89 % of control | [6] 95 % of control

CCCCSc1ccccn1
inactive: [12] 114 % of control | [14] 98 % of control | dose: 200.0 mg/kg/injection, schedule: Q04DX003 (ip), vehicle: saline 90 % of control

O=C(O)C1(C(=O)O)CC(c2ccccc2)C1
inactive: dose: 75.0 mg/kg/injection, schedule: Q04DX003 (ip), vehicle: saline with Tween-80 101 % of control | dose: 150.0 mg/kg/injection, schedule: Q01DX009 (ip), vehicle: saline with Tween-80 91 % of control | dose: 150.0 mg/kg/injection, schedule: Q04DX003 (ip), vehicle: saline with Tween-80 95 % of control | dose: 300.0 mg/kg/injection, schedule: Q01DX009 (ip), vehicle: saline with Tween-80 91 % of control | dose: 300.0 mg/kg/injection, schedule: Q04DX003 (ip), vehicle: saline with Tween-80 101 % of control

Fc1c(F)c(F)c(Oc2c(F)c(F)c3c(c2F)C2C=CC3O2)c(F)c1F (configuration not stated)
inactive: [2] 95 % of control | [9] 93 % of control | [21] 93 % of control

CCOC(=O)c1ccc(NC(=O)Sc2ccccc2C)cc1
inactive: dose: 100.0 mg/kg/injection, schedule: Q04DX002 (ip), vehicle: saline 120 % of control | dose: 200.0 mg/kg/injection, schedule: Q04DX002 (ip), vehicle: saline 120 % of control | dose: 400.0 mg/kg/injection, schedule: Q04DX002 (ip), vehicle: saline 87 % of control

c1cc2c(c3c1CCCC3)CCC1CCCCC21 (configuration not stated)
inactive: dose: 100.0 mg/kg/injection, schedule: Q01DX001 (ip), vehicle: carboxymethylcellulose (CMC) 103 % of control | dose: 200.0 mg/kg/injection, schedule: Q01DX001 (ip), vehicle: carboxymethylcellulose (CMC) 95 % of control | dose: 400.0 mg/kg/injection, schedule: Q01DX001 (ip), vehicle: carboxymethylcellulose (CMC) 97 % of control

CCCCCC(C)O[Si](C)c1cccc2ccccc12 (configuration not stated)
inactive: [19] 98 % of control | [3] 92 % of control | [20] 93 % of control | [4] 92 % of control | dose: 400.0 mg/kg/injection, schedule: Q01DX009 (ip), vehicle: saline with Tween-80 104 % of control | [25] 101 % of control

COc1ccc(NC(=O)N2CCOCC2)cc1OC
inactive: [3] 102 % of control | [4] 96 % of control | [25] 89 % of control

CC(=O)Nc1ccc(C=NCCN=Cc2ccc(NC(C)=O)cc2)cc1
inactive: [9] 97 % of control | [21] 88 % of control | [22] 88 % of control

O=[N+]([O-])c1cccc(N=Cc2ccccc2O)c1
inactive: [15] 93 % of control | [16] 88 % of control | [17] 88 % of control

O=CN(O)CC(=O)O.[Zn]
inactive: dose: 6.25 mg/kg/injection, schedule: Q01DX009 (ip), vehicle: saline 105 % of control | dose: 12.5 mg/kg/injection, schedule: Q01DX009 (ip), vehicle: saline 100 % of control | [26] 120 % of control

COC1OC(CN(CCO)CCO)C2OC(C)(C)OC12 (configuration not stated)
inactive: [10] 97 % of control | [26] 98 % of control | [11] 89 % of control | dose: 50.0 mg/kg/injection, schedule: Q01DX009 (ip), vehicle: saline 94 % of control | [12] 97 % of control | dose: 100.0 mg/kg/injection, schedule: Q01DX009 (ip), vehicle: saline 89 % of control | [14] 94 % of control | dose: 335.0 mg/kg/injection, schedule: Q01DX009 (ip), vehicle: saline 101 % of control
